# Reference: patent publication US20050085408A1, “Drugs ameliorating hypo-hdl cholesterolemia” (priority 2001, published 2005)
# Where a SMILES comes first, the peptide text is derived from it. [ ]: non-standard residue; d: D form. Nle = CCCC[C@H](N)C(=O)O
# What was measured:
# ABCA1 = test: Increase of the expression of ABCA1 in THP-1-derived macrophages (immunoblotting); type: cell-based, human; settings: for intracellular expression of ABCA1 compared with control cells: THP-1 macrophages
# Description: THP-1 cells (human leukemia cell, American Type Culture Collection) were cultured for 72 hours in a 10% FBS-RPMI1640 medium (Iwaki Glass Co., Ltd.), together with PMA (phorbol myristate acetate, Wako Pure Chemical Industries Ltd.) to obtain differentiated macrophages. The medium was replaced with 0.2% BSA-RPMI 1640 (Iwaki Glass Co., Ltd.) to which ALLN (50 μM, Sigma) was added, and examined for the time-course of intracellular ABCA1 expression according to the method illustrated herein below.
# ALLN-treated cells and control cells cultivated in ALLN-free media were hypotonically disrupted in 5 mM Tris-HCl (pH8.5), and then centrifuged (650 g, for 5 minutes) to precipitate nuclear fractions. The supernatant was centrifuged at 105,000 g for 30 minutes to collect a total membrane fraction. The total membrane was dissolved in an aqueous solution containing 0.9M urea, 0.2% triton X-100 (Wako Pure Chemical Industries Ltd.), and 0.1% dithiothreitol (Wako Pure Chemical Industries Ltd.), followed by addition of 10% lithium dodecyl sulfate solution (Wako Pure Chemical Industries Ltd.) at a volume ratio of 1/4. The resultant was subjected to electrophoretic separation using 10% SDS-7% polyacrylamide gel (Wako Pure Chemical Industries Ltd.). The separated protein was fixed and transferred onto PVDF membrane (Bio-Rad). Each sample was then subjected to immunoblotting with rabbit anti-human ABCA1 antibody (self-made purification by an ordinary method) to quantitate expressed ABCA1 proteins. The obtained bands were read for density and size with Scion Image (image analysis software, Scion) to digitize the results.
# In the same manner as in Assay Example 1, THP-1 cells were cultured in a medium to which leupeptin was added in place of ALLN, and compared with control cells non-treated with leupeptin.
# THP-1 cells = test: Acceleration of apoAI-dependent HDL formation (cholesterols and phospholipids transported into the medium); type: cell-based, human; settings: apoAI & ALLN-added cells vs control group and apoAI-added group; FIG. 3
# Description: In the same manner as in Arakawa et al., J. Lipid Res., 41, 1952-1962 (2000), THP-1 cells were used for quantitative analysis of cholesterols and phospholipids transported into the medium on the basis of apoAI-dependent HDL formation. ALLN-added cells were compared with those free of ALLN addition.
Compound,intracellular expression of ABCA1 compared with control cells (ABCA1; ALLN 50 μM in medium),"action of increasing the expression of ABCA1 (ABCA1; ALLN 50 μM, 24 hours after addition)",amount of apoAI-dependently transported cholesterols (THP-1 cells),amount of apoAI-dependently transported phospholipids (THP-1 cells),"intracellular expression of ABCA1 compared with control cells (ABCA1; leupeptin in place of ALLN, FIG. 2 at 7 hours after addition)","action of elevating the expression of ABCA1 (ABCA1; leupeptin, 24 hours after addition to the medium)"
"CCCC[C@@H](C=O)NC(=O)[C@H](CC(C)C)NC(=O)[C@H](CC(C)C)NC(C)=O [ALLN, N-acetyl-leu-leu-norleucinal] (Ac-Leu-Leu-[Nle]-aldehyde)",remarkable intracellular expression of ABCA1,found even 24 hours after addition,increase,increase,–,–
CC(=O)N[C@@H](CC(C)C)C(=O)N[C@@H](CC(C)C)C(=O)N[C@H](C=O)CCCNC(=N)N [leupeptin],–,–,–,–,remarkable increase in the intracellular expression of ABCA1,found even 24 hours after addition
